Laboratory results: patent US4057636A, “Antihypertensive pyridylguanidine compounds” (Leo Pharmaceutical Products Ltd. A/S, priority 1974, dated 1977)

What was measured:
[1] = tested on: normotensive anaesthetized rats; assay: Hypotensive activity in normotensive anaesthetized rats; assay type: in vivo, rat (Sprague Dowley); conditions: for Δ mean blood pressure: at time of peak effect
Description: Male albino Sprague Dowley strain rats were anaesthetized with pentobarbital and fastened to rat boards in a supine position. The left carotid artery was exposed and cannulated with polyethylene cannula connected through a Statham pressure transducer to a Grass Polygraph Recorder. […] The compound was dissolved in dilute HCl. […] Table 1 summarizes the effects on mean blood pressure at the time of peak effect.

[2] = tested on: conscious spontaneously hypertensive rats; assay: Antihypertensive activity in conscious spontaneously hypertensive rats; assay type: in vivo, rat (spontaneously hypertensive Okamoto strain)
Description: Male albino rats, spontaneously hypertensive Okamoto strain, fasting 16 hours before the experiments were used. The conscious animals were restrained in a plastic cage and a cuff was secured around the tail. The cuff was connected with an electronic blood pressure recorder. The systolic blood pressure and the heart rate were measured before and 2, 4, 6, and 24 hours after the administration of compounds. The compounds were suspended or dissolved in carboxymethylcellulose 0.5%. […] There are also included, for comparison, the results obtained under the same experimental conditions with some known antihypertensive drugs, and the approximate oral LD50 in mice are stated.

[3] = tested on: common carotid artery occlusion pressor response; assay: Reduction of pressor response to common carotid artery occlusion (CO) in cats; assay type: in vivo, cat; conditions: 0.01 mg/kg i.v.; carotid artery occlusion 45 secs
Description: (§1) Hypotensive action and various cardiovascular and autonomic responses in cats.
(§2) Cats of both sexes anaestetized with pentobarbital […]. were used. The left carotid artery was exposed and cannulated with polyethylene cannula connected through a Statham pressure transducer to a Grass Polygraph Recorder. […] The compound was administered dissolved in dilute HCl in a volume of 0.4 ml. […] Both procedures are known to produce pressor effects. […]

[4] = tested on: vasopressor response to norepinephrine; assay: Reduction of vasopressor response to norepinephrine (NE) in cats; assay type: in vivo, cat; conditions: 0.01 mg/kg i.v.; norepinephrine hydrochloride 1 meg/kg i.v.
Description: as §1, §2

[5] = tested on: cats; assay: Hypotensive action in anaesthetized cats (ΔBP, ΔHR); assay type: in vivo, cat
Description: as §1, §2

[6] = tested on: conscious normotensive dogs; assay: Hypotensive activity in conscious normotensive dogs; assay type: in vivo, dog (mongrel); conditions: 0.1 mg/kg oral
Description: Hypotensive activity in conscious normotensive dogs
Mongrel dogs of both sexes, fasting 16 hours before the experiment were used. […] The compounds were orally administered in gelatine capsules.

[7] = tested on: nictitating membrane; assay: Reduction of contraction of nictitating membrane, pre- and postganglionic stimulation, in cats; assay type: in vivo, cat; conditions: for Nict. Membr. post % reduction: postganglionic stimulation (3 V, 1 msec, 5 secs); for Nict. Membr. pre % reduction: preganglionic stimulation (3 V, 1 msec, 40 Hz, 5 secs)
Description: as §1, §2

[8] = tested on: blood pressure; conditions: J. Med. Chem. Vol. 11, p. 811 (1968); cited from earlier work
[9] = 0.01 mg/kg i.v., line with NE/CO
[10] = 0.01 mg/kg i.v., line with nictitating membrane
[11] = 0.05 mg/kg i.v., line with nictitating membrane

With `CC(C)(C)NC(=NC#N)Nc1cccnc1` [P 1060, N-tert-Butyl-N"-cyano-N'-3-pyridylcuanidine] the duration ([1]; 0.002 mg/kg i.v.) was 3 min, the “Δ mean blood pressure” value ([1]; 0.002 mg/kg i.v.) was -70 mm Hg and the duration ([1]; 0.005 mg/kg i.v.) was 12 min. The “Δ mean blood pressure” value ([1]; 0.005 mg/kg i.v.) was -70 mm Hg, the duration ([1]; 0.010 mg/kg i.v.) was over 45 min and the “Δ mean blood pressure” value ([1]; 0.010 mg/kg i.v.) was -85 mm Hg. It also gave a BP ([2]; 0.01 mg/kg, 2 hours) of 141 mm Hg, an HR ([2]; 0.01 mg/kg, 2 hours) of 419 beats/minute and a BP ([2]; 0.01 mg/kg, 4 hours) of 145 mm Hg. It also gave an HR ([2]; 0.01 mg/kg, 4 hours) of 423 beats/minute, a BP ([2]; 0.01 mg/kg, 6 hours) of 146 mm Hg and an HR ([2]; 0.01 mg/kg, 6 hours) of 428 beats/minute. For the same compound, the BP ([2]; 0.01 mg/kg, 24 hours) was 176 mm Hg, the HR ([2]; 0.01 mg/kg, 24 hours) was 402 beats/minute and the BP ([2]; 0.05 mg/kg, 2 hours) was 126 mm Hg. It also gave an HR ([2]; 0.05 mg/kg, 2 hours) of 422 beats/minute, a BP ([2]; 0.05 mg/kg, 4 hours) of 132 mm Hg and an HR ([2]; 0.05 mg/kg, 4 hours) of 420 beats/minute. It also gave a BP ([2]; 0.05 mg/kg, 6 hours) of 127 mm Hg, an HR ([2]; 0.05 mg/kg, 6 hours) of 410 beats/minute and a BP ([2]; 0.05 mg/kg, 24 hours) of 170 mm Hg. The HR ([2]; 0.05 mg/kg, 24 hours) was 386 beats/minute, the BP ([2]; 0.1 mg/kg, 2 hours) was 118 mm Hg and the HR ([2]; 0.1 mg/kg, 2 hours) was 420 beats/minute. It also gave a BP ([2]; 0.1 mg/kg, 4 hours) of under 100 mm Hg, an HR ([2]; 0.1 mg/kg, 4 hours) of 426 beats/minute and a BP ([2]; 0.1 mg/kg, 6 hours) of 114 mm Hg. For the same compound, the HR ([2]; 0.1 mg/kg, 6 hours) was 422 beats/minute, the BP ([2]; 0.1 mg/kg, 24 hours) was 170 mm Hg and the HR ([2]; 0.1 mg/kg, 24 hours) was 408 beats/minute. For the same compound, the BP ([2]; 0.5 mg/kg, 2 hours) was under 100 mm Hg, the BP ([2]; 0.5 mg/kg, 4 hours) was under 100 mm Hg and the BP ([2]; 0.5 mg/kg, 6 hours) was under 100 mm Hg. The BP ([2]; 0.5 mg/kg, 24 hours) was 153 mm Hg, the HR ([2]; 0.5 mg/kg, 24 hours) was 413 beats/minute and the BP ([2]; 1.0 mg/kg, 2 hours) was under 100 mm Hg. The BP ([2]; 1.0 mg/kg, 4 hours) was under 100 mm Hg, the BP ([2]; 1.0 mg/kg, 6 hours) was under 100 mm Hg and the BP ([2]; 1.0 mg/kg, 24 hours) was 126 mm Hg. It also gave an HR ([2]; 1.0 mg/kg, 24 hours) of 405 beats/minute, a CO % reduction [3] of 100% and an NE % reduction [4] of 50%. It also gave a ΔBP [5, 9] of 90 mm Hg, a ΔHR [5, 9] of 20 beats/min and a ΔBP [5, 10] of 90 mm Hg. It also gave a ΔHR [5, 10] of 35 beats/min, a ΔBP [5, 11] of 110 mm Hg and a ΔHR [5, 11] of 30 beats/min. The BP ([6]; Dog I, 1 hour) was 75 mm Hg, the HR ([6]; Dog I, 1 hour) was 152 beats/minute and the UV ([6]; Dog I, 1 hour) was 2.3 mL. For the same compound, the BP ([6]; Dog I, 2 hours) was 80 mm Hg, the HR ([6]; Dog I, 2 hours) was 180 beats/minute and the UV ([6]; Dog I, 2 hours) was 7.1 mL. The BP ([6]; Dog I, 3 hours) was 90 mm Hg, the HR ([6]; Dog I, 3 hours) was 152 beats/minute and the UV ([6]; Dog I, 3 hours) was 11 mL. The BP ([6]; Dog I, 4 hours) was 120 mm Hg, the HR ([6]; Dog I, 4 hours) was 140 beats/minute and the UV ([6]; Dog I, 4 hours) was 22 mL. The BP ([6]; Dog II, 1 hour) was 100 mm Hg, the HR ([6]; Dog II, 1 hour) was 112 beats/minute and the UV ([6]; Dog II, 1 hour) was 8 mL. For the same compound, the BP ([6]; Dog II, 2 hours) was 95 mm Hg, the HR ([6]; Dog II, 2 hours) was 128 beats/minute and the UV ([6]; Dog II, 2 hours) was 12.5 mL. It also gave a BP ([6]; Dog II, 3 hours) of 95 mm Hg, an HR ([6]; Dog II, 3 hours) of 104 beats/minute and a UV ([6]; Dog II, 3 hours) of 22.5 mL. For the same compound, the BP ([6]; Dog II, 4 hours) was 105 mm Hg, the HR ([6]; Dog II, 4 hours) was 100 beats/minute and the UV ([6]; Dog II, 4 hours) was 16 mL. The BP ([6]; Dog III, 1 hour) was 65 mm Hg, the HR ([6]; Dog III, 1 hour) was 172 beats/minute and the UV ([6]; Dog III, 1 hour) was 22 mL. The BP ([6]; Dog III, 2 hours) was 115 mm Hg, the HR ([6]; Dog III, 2 hours) was 104 beats/minute and the UV ([6]; Dog III, 2 hours) was 20 mL. For the same compound, the BP ([6]; Dog III, 3 hours) was 110 mm Hg, the HR ([6]; Dog III, 3 hours) was 92 beats/minute and the UV ([6]; Dog III, 3 hours) was 12 mL. The BP ([6]; Dog III, 4 hours) was 125 mm Hg, the HR ([6]; Dog III, 4 hours) was 88 beats/minute and the UV ([6]; Dog III, 4 hours) was 14 mL. For the same compound, the “Nict. Membr. post % reduction” value ([7]; 0.01 mg/kg i.v.) was 12%, the “Nict. Membr. pre % reduction” value ([7]; 0.01 mg/kg i.v.) was 20% and the “Nict. Membr. post % reduction” value ([7]; 0.05 mg/kg i.v.) was 21%. For the same compound, the “Nict. Membr. pre % reduction” value ([7]; 0.05 mg/kg i.v.) was 12%.
In the case of `CCC(C)(C)NC(=N)NC#N` [Guancydine, N-cyano-N'-tert-pentylguanidine], the “hypotensive effect (literature)” value [8] is listed as “the most potent of the compounds of the above-mentioned literature”.
